{"source": "patent US6355799B1", "about": "“Substituted benzene compounds, process for their preparation, and herbicidal and defoliant compositions containing them” (ISK Americas Incorporated, priority 1997, dated 2002)", "assay_type_in_all_cases": "in vivo", "key": {"[1]": {"system": "lambsquarters (Chenopodium album, CHEAL)", "test": "Post-emerge test, greenhouse herbicide activity screening", "conditions": "rating scale 0-100 (0 no damage, 100 complete death), 14 days after application", "outline": "(§1)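 Sandy loam pots; pre-emerge: sown 1 d pre-spray, surface-watered after, then bottom-watered. Post-emerge: sown 8–21 d before, 2–3 leaf stage, + 0.25% v/v NIS, bottom-watered. Acetone, 187 l/ha track spray, 15–1000 g ai/ha. 0–100 injury score, day 14.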"}, "[2]": {"system": "johnsongrass (Sorghum halepense, SORHA)", "test": "Post-emerge test, greenhouse herbicide activity screening", "conditions": "rating scale 0-100 (0 no damage, 100 complete death), 14 days after application", "outline": "as §1"}, "[3]": {"system": "ivyleaf morningglory (Ipomoea hederacea, IPOHE)", "test": "Post-emerge test, greenhouse herbicide activity screening", "conditions": "rating scale 0-100 (0 no damage, 100 complete death), 14 days after application", "outline": "as §1"}, "[4]": {"system": "barnyardgrass (Echinochloa crus-galli, ECHCG)", "test": "Post-emerge test, greenhouse herbicide activity screening", "conditions": "rating scale 0-100 (0 no damage, 100 complete death), 14 days after application", "outline": "as §1"}, "[5]": {"system": "redroot pigweed (Amaranthus retroflexus, AMARE)", "test": "Post-emerge test, greenhouse herbicide activity screening", "conditions": "rating scale 0-100 (0 no damage, 100 complete death), 14 days after application", "outline": "as §1"}, "[6]": {"system": "green foxtail (Setaria viridis, SETVI)", "test": "Post-emerge test, greenhouse herbicide activity screening", "conditions": "rating scale 0-100 (0 no damage, 100 complete death), 14 days after application", "outline": "as §1"}, "[7]": {"system": "sicklepod (Cassia obtusifolia, CASOB)", "test": "Post-emerge test, greenhouse herbicide activity screening", "conditions": "rating scale 0-100 (0 no damage, 100 complete death), 14 days after application", "outline": "as §1"}, "[8]": {"system": "velvetleaf (Abutilon theophrasti, ABUTH)", "test": "Post-emerge test, greenhouse herbicide activity screening", "conditions": "rating scale 0-100 (0 no damage, 100 complete death), 14 days after application", "outline": "as §1"}, "[9]": {"system": "large crabgrass (Digitaria sanguinalis, DIGSA)", "test": "Post-emerge test, greenhouse herbicide activity screening", "conditions": "rating scale 0-100 (0 no damage, 100 complete death), 14 days after application", "outline": "as §1"}, "[10]": {"system": "field corn (Zea mays L., var. Dekalb 535, CORN)", "test": "Pre-emerge test, crop safety", "conditions": "rating scale 0-100, 14 days after application", "outline": "(§2)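 Compounds in acetone were track-sprayed at 187 l/ha, 15–1000 g ai/ha, onto sandy loam pots. Pre-emerge seeds were sown one day before spraying, with surface watering afterwards. Post-emerge plants were at the 2–3 leaf stage and sprayed with 0.25% v/v non-ionic surfactant. Injury was rated 0–100 at 14 days.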"}, "[11]": {"system": "upland rice (Oryza sp., var. Tebonnet, RICE)", "test": "Pre-emerge test, crop safety", "conditions": "rating scale 0-100, 14 days after application", "outline": "as §2"}, "[12]": {"system": "field corn (Zea mays L., var. Dekalb 535, CORN)", "test": "Post-emerge test, crop safety", "conditions": "rating scale 0-100 (0 no damage, 100 complete death), 14 days after application", "outline": "(§3)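 Visual ratings on a 0-100 scale (0 no damage, 100 all plants dead) were taken at 14 days after treatment. Rates of 15-1000 g ai/ha in acetone, 187 l/ha, were sprayed onto soil one day after planting (pre-emerge) or onto 2-3 leaf plants with 0.25% v/v surfactant (post-emerge).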"}, "[13]": {"system": "upland rice (Oryza sp., var. Tebonnet, RICE)", "test": "Post-emerge test, crop safety", "conditions": "rating scale 0-100 (0 no damage, 100 complete death), 14 days after application", "outline": "as §3"}, "[14]": {"system": "lambsquarters (Chenopodium album, CHEAL)", "test": "Pre-emerge test, greenhouse herbicide activity screening", "conditions": "rating scale 0-100, 14 days after application", "outline": "as §3"}, "[15]": {"system": "johnsongrass (Sorghum halepense, SORHA)", "test": "Pre-emerge test, greenhouse herbicide activity screening", "conditions": "rating scale 0-100, 14 days after application", "outline": "as §3"}, "[16]": {"system": "ivyleaf morningglory (Ipomoea hederacea, IPOHE)", "test": "Pre-emerge test, greenhouse herbicide activity screening", "conditions": "rating scale 0-100, 14 days after application", "outline": "as §3"}, "[17]": {"system": "barnyardgrass (Echinochloa crus-galli, ECHCG)", "test": "Pre-emerge test, greenhouse herbicide activity screening", "conditions": "rating scale 0-100, 14 days after application", "outline": "as §3"}, "[18]": {"system": "green foxtail (Setaria viridis, SETVI)", "test": "Pre-emerge test, greenhouse herbicide activity screening", "conditions": "rating scale 0-100, 14 days after application", "outline": "as §3"}, "[19]": {"system": "sicklepod (Cassia obtusifolia, CASOB)", "test": "Pre-emerge test, greenhouse herbicide activity screening", "conditions": "rating scale 0-100, 14 days after application", "outline": "as §3"}, "[20]": {"system": "velvetleaf (Abutilon theophrasti, ABUTH)", "test": "Pre-emerge test, greenhouse herbicide activity screening", "conditions": "rating scale 0-100, 14 days after application", "outline": "as §3"}, "[21]": {"system": "large crabgrass (Digitaria sanguinalis, DIGSA)", "test": "Pre-emerge test, greenhouse herbicide activity screening", "conditions": "rating scale 0-100, 14 days after application", "outline": "as §3"}, "[22]": {"system": "redroot pigweed (Amaranthus retroflexus, AMARE)", "test": "Pre-emerge test, greenhouse herbicide activity screening", "conditions": "rating scale 0-100, 14 days after application", "outline": "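Herbicidal damage is scored 0 (none) to 100 (complete plant death) two weeks after a simulated field spray. Rates span 15–1000 g ai/ha, delivered in acetone at 187 l/ha. For post-emergence treatments, plants have 2–3 leaves and the spray carries 0.25% v/v non-ionic surfactant.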"}}}
{"smiles": "C#CCOC(=O)C(Cl)Cc1c(OC)c(Cl)cc(F)c1-n1c(=O)cc(C(F)(F)F)n(C)c1=O", "note": "(single isomer, unassigned) [14-20]", "values": [{"measurement": "Post-emerge Herbicidal Activity, phytotoxicity rating CHEAL", "setting": "[1]; Rate 63 g ai/ha", "result": 80}, {"measurement": "Post-emerge Herbicidal Activity, phytotoxicity rating CHEAL", "setting": "[1]; Rate 250 g ai/ha", "result": 100}, {"measurement": "Post-emerge Herbicidal Activity, phytotoxicity rating SORHA", "setting": "[2]; Rate 63 g ai/ha", "result": 10}, {"measurement": "Post-emerge Herbicidal Activity, phytotoxicity rating SORHA", "setting": "[2]; Rate 250 g ai/ha", "result": 90}, {"measurement": "Post-emerge Herbicidal Activity, phytotoxicity rating IPOHE", "setting": "[3]; Rate 63 g ai/ha", "result": 50}, {"measurement": "Post-emerge Herbicidal Activity, phytotoxicity rating IPOHE", "setting": "[3]; Rate 250 g ai/ha", "result": 70}, {"measurement": "Post-emerge Herbicidal Activity, phytotoxicity rating ECHCG", "setting": "[4]; Rate 63 g ai/ha", "result": 100}, {"measurement": "Post-emerge Herbicidal Activity, phytotoxicity rating ECHCG", "setting": "[4]; Rate 250 g ai/ha", "result": 100}, {"measurement": "Post-emerge Herbicidal Activity, phytotoxicity rating AMARE", "setting": "[5]; Rate 63 g ai/ha", "result": 95}, {"measurement": "Post-emerge Herbicidal Activity, phytotoxicity rating AMARE", "setting": "[5]; Rate 250 g ai/ha", "result": 100}, {"measurement": "Post-emerge Herbicidal Activity, phytotoxicity rating SETVI", "setting": "[6]; Rate 63 g ai/ha", "result": 0}, {"measurement": "Post-emerge Herbicidal Activity, phytotoxicity rating SETVI", "setting": "[6]; Rate 250 g ai/ha", "result": 50}, {"measurement": "Post-emerge Herbicidal Activity, phytotoxicity rating CASOB", "setting": "[7]; Rate 63 g ai/ha", "result": 0}, {"measurement": "Post-emerge Herbicidal Activity, phytotoxicity rating CASOB", "setting": "[7]; Rate 250 g ai/ha", "result": 50}, {"measurement": "Post-emerge Herbicidal Activity, phytotoxicity rating ABUTH", "setting": "[8]; Rate 63 g ai/ha", "result": 99}, {"measurement": "Post-emerge Herbicidal Activity, phytotoxicity rating ABUTH", "setting": "[8]; Rate 250 g ai/ha", "result": 100}, {"measurement": "Post-emerge Herbicidal Activity, phytotoxicity rating DIGSA", "setting": "[9]; Rate 63 g ai/ha", "result": 100}, {"measurement": "Post-emerge Herbicidal Activity, phytotoxicity rating DIGSA", "setting": "[9]; Rate 250 g ai/ha", "result": 100}, {"measurement": "Pre-emerge phytotoxicity rating, crop damage CORN", "setting": "[10]; 63 g ai/ha", "result": 0}, {"measurement": "Pre-emerge phytotoxicity rating, crop damage CORN", "setting": "[10]; 250 g ai/ha", "result": 50}, {"measurement": "Pre-emerge phytotoxicity rating, crop damage RICE", "setting": "[11]; 63 g ai/ha", "result": 0}, {"measurement": "Pre-emerge phytotoxicity rating, crop damage RICE", "setting": "[11]; 250 g ai/ha", "result": 0}, {"measurement": "Post-emerge phytotoxicity rating CORN (crop damage)", "setting": "[12]; Rate 63 g ai/ha", "result": 0}, {"measurement": "Post-emerge phytotoxicity rating CORN (crop damage)", "setting": "[12]; Rate 250 g ai/ha", "result": 80}, {"measurement": "Post-emerge phytotoxicity rating RICE (crop damage)", "setting": "[13]; Rate 63 g ai/ha", "result": 0}, {"measurement": "Post-emerge phytotoxicity rating RICE (crop damage)", "setting": "[13]; Rate 250 g ai/ha", "result": 10}, {"measurement": "Pre-emerge herbicidal activity, phytotoxicity rating CHEAL", "setting": "[14]; 63 g ai/ha", "result": 0}, {"measurement": "Pre-emerge herbicidal activity, phytotoxicity rating CHEAL", "setting": "[14]; 250 g ai/ha", "result": 80}, {"measurement": "Pre-emerge herbicidal activity, phytotoxicity rating SORHA", "setting": "[15]; 63 g ai/ha", "result": 0}, {"measurement": "Pre-emerge herbicidal activity, phytotoxicity rating SORHA", "setting": "[15]; 250 g ai/ha", "result": 20}, {"measurement": "Pre-emerge herbicidal activity, phytotoxicity rating IPOHE", "setting": "[16]; 63 g ai/ha", "result": 0}, {"measurement": "Pre-emerge herbicidal activity, phytotoxicity rating IPOHE", "setting": "[16]; 250 g ai/ha", "result": 0}, {"measurement": "Pre-emerge herbicidal activity, phytotoxicity rating ECHCG", "setting": "[17]; 63 g ai/ha", "result": 0}, {"measurement": "Pre-emerge herbicidal activity, phytotoxicity rating ECHCG", "setting": "[17]; 250 g ai/ha", "result": 40}, {"measurement": "Pre-emerge herbicidal activity, phytotoxicity rating SETVI", "setting": "[18]; 63 g ai/ha", "result": 0}, {"measurement": "Pre-emerge herbicidal activity, phytotoxicity rating SETVI", "setting": "[18]; 250 g ai/ha", "result": 30}, {"measurement": "Pre-emerge herbicidal activity, phytotoxicity rating CASOB", "setting": "[19]; 63 g ai/ha", "result": 0}, {"measurement": "Pre-emerge herbicidal activity, phytotoxicity rating CASOB", "setting": "[19]; 250 g ai/ha", "result": 0}, {"measurement": "Pre-emerge herbicidal activity, phytotoxicity rating ABUTH", "setting": "[20]; 63 g ai/ha", "result": 0}, {"measurement": "Pre-emerge herbicidal activity, phytotoxicity rating ABUTH", "setting": "[20]; 250 g ai/ha", "result": 90}, {"measurement": "Pre-emerge herbicidal activity, phytotoxicity rating DIGSA", "setting": "[21]; 63 g ai/ha", "result": 0}, {"measurement": "Pre-emerge herbicidal activity, phytotoxicity rating DIGSA", "setting": "[21]; 250 g ai/ha", "result": 90}, {"measurement": "Pre-emerge herbicidal activity, phytotoxicity rating AMARE", "setting": "[22]; 63 g ai/ha", "result": 50}, {"measurement": "Pre-emerge herbicidal activity, phytotoxicity rating AMARE", "setting": "[22]; 250 g ai/ha", "result": 100}]}
